Assay results from article PMC12064818, “A general assay platform to study protein pharmacology using ligand-dependent structural dynamics” (Nature Communications, 2025).

Molecular target: T1, FLuc-C-HiBiT (Photinus pyralis, UniProt P08659)
T1 construct: firefly luciferase with C-terminal HiBiT tag, E. coli expressed
Assay: biochemical
Conditions: enzyme activity, 10 uM ATP; read-out: IC50 or SDR50 (mM) / FLuc E

T1 sequence (P08659 whole entry, looked up): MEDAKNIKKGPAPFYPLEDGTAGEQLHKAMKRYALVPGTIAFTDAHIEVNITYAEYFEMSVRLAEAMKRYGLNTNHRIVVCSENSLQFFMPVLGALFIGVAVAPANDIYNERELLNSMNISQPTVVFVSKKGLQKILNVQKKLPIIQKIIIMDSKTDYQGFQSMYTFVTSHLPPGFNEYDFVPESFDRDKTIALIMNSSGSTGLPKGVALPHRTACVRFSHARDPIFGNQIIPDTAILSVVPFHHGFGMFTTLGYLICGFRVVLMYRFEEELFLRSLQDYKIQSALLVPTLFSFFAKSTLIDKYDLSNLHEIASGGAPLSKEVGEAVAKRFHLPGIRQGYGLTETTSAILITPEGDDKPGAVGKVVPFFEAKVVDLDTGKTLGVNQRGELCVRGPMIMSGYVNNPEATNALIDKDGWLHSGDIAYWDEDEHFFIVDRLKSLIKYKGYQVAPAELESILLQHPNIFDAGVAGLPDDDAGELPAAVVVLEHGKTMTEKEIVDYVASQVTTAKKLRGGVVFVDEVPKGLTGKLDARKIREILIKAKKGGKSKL

SMILES | IC50 [mM]
Cc1ccc(-c2nc(C(=O)N3CCN(c4ccccc4)CC3)no2)cc1 [NCGC00447113-01] | 0.0111
COc1ccc(N2CCN(C(=O)c3noc(-c4ccc(C)cc4)n3)CC2)cc1 [NCGC00447127-01] | 0.00989
Cc1ccc(-c2nc(C(=O)N3CCN(c4ccccn4)CC3)no2)cc1 [NCGC00447133-01] | 0.00785
Nc1nc(N2CCC3(CC2)NC(=O)CC3C(=O)O)c2nc[nH]c2n1 (centres unmarked) [NCGC00447244-01] | > 0.03
c1ccc2cc(-c3nc(C4CCOC4)no3)ncc2c1 (centres unmarked) [NCGC00447332-01] | 0.0176
CC1CCC(NC(=O)c2noc(-c3ccccc3F)n2)CC1 (centres unmarked) [NCGC00447353-01] | 0.0124
CN(C)c1ccc(-c2nc(C3CCOC3)no2)cc1 (centres unmarked) [NCGC00447436-01] | 0.00989
O=C1NCCCc2[nH]c(-c3cc(-c4cccc(F)c4)no3)nc21 [NCGC00447462-01] | 0.007
Cn1nc(-c2ccc3c(c2)OCCO3)nc1N1CCCCC1 [NCGC00447616-01] | 0.00989
CSc1ccc(-c2nc3c([nH]2)CC(C)(C)CNC3=O)cc1 [NCGC00448280-01] | 0.0124
COc1cccc(-c2ccc(-c3nc(C4CCOC4)no3)o2)c1 (centres unmarked) [NCGC00448436-01] | 0.00989
CC(C)n1cnnc1CN(C)c1nc(N)nc2[nH]cnc12 [NCGC00449084-01] | > 0.03
Cc1ccc(C2Cn3nnc(C(=O)N4CCC(C(=O)NC5CC5)CC4)c3CO2)cc1 (centres unmarked) [NCGC00449485-01] | 0.00785
Cc1ccc(C2Cn3nnc(C(=O)N4CCC(C(=O)NCCc5ccccc5)CC4)c3CO2)cc1 (centres unmarked) [NCGC00449535-01] | 0.0111
Cc1ccc(C2Cn3nnc(C(=O)N4CCC(C(=O)NCCc5cccs5)CC4)c3CO2)cc1 (centres unmarked) [NCGC00449541-01] | 0.00989
Cc1ccc(C2Cn3nnc(C(=O)N4CCC(C(=O)NCc5ccccn5)CC4)c3CO2)cc1 (centres unmarked) [NCGC00449551-01] | 0.0111
Cc1ccc(C2Cn3nnc(C(=O)N4CCC(C(=O)NCc5ccncc5)CC4)c3CO2)cc1 (centres unmarked) [NCGC00449555-01] | 0.0111
COCCNC(=O)C1CCN(C(=O)c2nnn3c2COC(c2ccc(C)cc2)C3)CC1 (centres unmarked) [NCGC00449559-01] | 0.00495
Cc1ccc(C2Cn3nnc(C(=O)N4CCC(C(=O)NCCN5CCCC5)CC4)c3CO2)cc1 (centres unmarked) [NCGC00449567-01] | 0.00989
Cc1ccc(C2Cn3nnc(C(=O)N4CCC(C(=O)Nc5ccccc5)CC4)c3CO2)cc1 (centres unmarked) [NCGC00449585-01] | 0.0111
Cc1ccc(C2Cn3nnc(C(=O)N4CCC(C(=O)Nc5ccc(F)cc5)CC4)c3CO2)cc1 (centres unmarked) [NCGC00449591-01] | 0.0111

SMILES | IC50 [mM]
CCCc1noc(-c2nc(-c3ccccc3F)no2)n1 [NCGC00450039-01] | 0.00989
CCc1noc(-c2nc(-c3ccccc3F)no2)n1 [NCGC00450040-01] | 0.0157
CC(C)c1noc(-c2nc(-c3ccc4c(c3)OCO4)no2)n1 [NCGC00450061-01] | 0.00785
CCc1noc(-c2nc(-c3ccc4c(c3)OCO4)no2)n1 [NCGC00450064-01] | 0.00989
c1ccc(-c2noc(-c3nc(C4CC4)no3)n2)cc1 [NCGC00450069-01] | 0.00989
CCc1noc(-c2nc(-c3ccccc3C)no2)n1 [NCGC00450081-01] | > 0.03
Cc1ccc(-c2noc(-c3nc(C(C)C)no3)n2)cc1 [NCGC00450102-01] | 0.0111
Cc1ccc(NC(=O)c2ccc3c(c2)N(C)C2CCCN2C3=O)cc1C (centres unmarked) [NCGC00452108-01] | 0.0124
Cc1ccc(NC(=O)c2ccc3c(c2)N(C)C2CCCN2C3=O)cc1F (centres unmarked) [NCGC00452116-01] | 0.00881
CCN1c2cc(C(=O)Nc3ccc4c(c3)OCCO4)ccc2C(=O)N2CCCC21 (centres unmarked) [NCGC00452150-01] | 0.0111
CN1c2cc(C(=O)Nc3ccc4c(c3)OCCO4)ccc2C(=O)N2CCCC21 (centres unmarked) [NCGC00452151-01] | 0.00785
CSc1cccc(NC(=O)c2ccc3c(c2)N(C)C2CCCN2C3=O)c1 (centres unmarked) [NCGC00452155-01] | 0.0111
CSc1ccc(NC(=O)c2ccc3c(c2)N(C)C2CCCN2C3=O)cc1 (centres unmarked) [NCGC00452166-01] | 0.0124
CN1c2cc(C(=O)Nc3cccc(F)c3)ccc2C(=O)N2CCCCCC21 (centres unmarked) [NCGC00452183-01] | 0.0124
CN1c2cc(C(=O)Nc3ccccc3)ccc2C(=O)N2CCCCCC21 (centres unmarked) [NCGC00452190-01] | 0.0111
CN1c2cc(C(=O)Nc3cccc(Cl)c3)ccc2C(=O)N2CCCCCC21 (centres unmarked) [NCGC00452209-01] | 0.0176
CN1c2cc(C(=O)Nc3cc(F)ccc3F)ccc2C(=O)N2CCCCCC21 (centres unmarked) [NCGC00452248-01] | 0.0124
CCN1c2cc(C(=O)Nc3ccc4c(c3)OCCO4)ccc2C(=O)N2CCCCCC21 (centres unmarked) [NCGC00452264-01] | 0.00989
CN1c2cc(C(=O)Nc3ccccc3)ccc2C(=O)N2CCCCC21 (centres unmarked) [NCGC00452396-01] | 0.0124
CN(C)c1ccc(NC(=O)c2ccc3c(c2)N(C)C2CCCCN2C3=O)cc1 (centres unmarked) [NCGC00452413-01] | 0.0111
CN1c2cc(C(=O)Nc3ccc4c(c3)OCCO4)ccc2C(=O)N2CCCCC21 (centres unmarked) [NCGC00452420-01] | 0.00989

SMILES | IC50 [mM]
CCN1c2cc(C(=O)Nc3ccc(N(C)C)cc3)ccc2C(=O)N2CCCCC21 (centres unmarked) [NCGC00452497-01] | 0.0124
CCN1c2cc(C(=O)Nc3ccc4c(c3)OCCO4)ccc2C(=O)N2CCCCC21 (centres unmarked) [NCGC00452503-01] | 0.00989
COC1CCOC2(CCN(C(=O)CCCc3ccccc3)CC2)C1 (centres unmarked) [NCGC00452766-01] | 0.0157
O=C(CCCc1ccccc1)N1CCC2(CC1)CC(O)CCO2 (centres unmarked) [NCGC00452928-01] | 0.0124
Cc1ccc(NC(=O)N2CCCC(c3noc(COc4ccccc4)n3)C2)cc1C (centres unmarked) [NCGC00453299-01] | 0.00881
O=C(Nc1ccc2c(c1)OCCO2)N1CCC(c2nc(C3CCOCC3)no2)CC1 [NCGC00453474-01] | 0.0111
O=C(c1cc(-c2ccc(F)cc2)nc2ccccc12)N1CCC(c2nc(C3CCOCC3)no2)C1 (centres unmarked) [NCGC00453669-01] | 0.00989
O=C(Nc1ccc2c(c1)OCCO2)N1CCC2(CC1)CC(N1CCCC1)CCO2 (centres unmarked) [NCGC00453772-01] | 0.0111
Cc1cn2nc(C(=O)Nc3ccc(C(=O)N4CCCC4)cc3)cc2c(=O)[nH]1 [NCGC00453923-01] | 0.00989
CCc1ccccc1NC(=O)c1cc2c(=O)[nH]c(C)cn2n1 [NCGC00453924-01] | 0.0157
COc1ccc(NC(=O)c2cc3c(=O)[nH]c(C)cn3n2)cc1OC [NCGC00453925-01] | 0.00989
Cc1cn2nc(C(=O)NCCc3ccccc3)cc2c(=O)[nH]1 [NCGC00453944-01] | 0.0111
Cc1cn2nc(C(=O)Nc3ccc(C(=O)NCCc4cccs4)cc3)cc2c(=O)[nH]1 [NCGC00453964-01] | 0.00881
Cc1cn2nc(C(=O)Nc3ccc(N(C)C)cc3)cc2c(N2CCCC2)n1 [NCGC00454051-01] | 0.0111
Cc1cn2nc(C(=O)Nc3ccc4c(c3)OCCO4)cc2c(N(C)Cc2ccccc2)n1 [NCGC00454161-01] | 0.00989
CCc1cccc(NC(=O)c2cc(-c3ccc[nH]3)n[nH]2)c1 [NCGC00454482-03] | 0.00989
Cc1ccc(NC(=O)c2ccc(CN3C(=O)NC4(CCOCC4)C3=O)cc2)cc1C [NCGC00454605-01] | 0.0111
CC(C)c1ccc(NC(=O)c2ccc(CN3C(=O)NC4(CCOCC4)C3=O)cc2)cc1 [NCGC00454608-01] | 0.00351
O=C(NCc1ccc2c(c1)OCO2)C1CCN(c2cc(C(F)(F)F)ncn2)CC1 [NCGC00455586-01] | 0.0111
CC(C)n1cnnc1CC1CCN(C(=O)Nc2ccc3c(c2)OCCO3)CC1 [NCGC00456228-01] | 0.00989
Cc1ccc(-c2cc(C(=O)N3CCC(Cc4nncn4CC4CC4)CC3)c3ccccc3n2)cc1C [NCGC00456240-01] | 0.00197

SMILES | IC50 [mM]
O=C(c1cc(-c2ccc(F)cc2)nc2ccccc12)N1CCC(Cc2nncn2CC2CC2)CC1 [NCGC00456245-01] | 0.00881
CCn1cnnc1CC1CCN(C(=O)c2cc(-c3ccc(C)c(C)c3)nc3ccccc23)CC1 [NCGC00456253-01] | 0.00279
Cc1ccc(OCc2nc(C3CN(C(=O)c4n[nH]c5ccccc45)C3)no2)cc1 [NCGC00456269-01] | 0.00881
CCC(C(=O)NCCn1ccn2nc(-c3ccc(OC)cc3)cc2c1=O)c1ccccc1 (centres unmarked) [NCGC00456905-01] | 0.0111
COc1ccc(-c2cc3c(=O)n(CCNC(=O)c4c(F)cccc4Cl)ccn3n2)cc1 [NCGC00456907-01] | 0.007
COc1ccc(-c2cc3c(=O)n(CCNC(=O)c4c(F)cccc4F)ccn3n2)cc1 [NCGC00456908-01] | 0.00495
COc1ccc(-c2cc3c(=O)n(CCNC(=O)c4ccco4)ccn3n2)cc1 [NCGC00456922-01] | 0.00989
COc1ccc(-c2cc3c(=O)n(CCNC(=O)Cc4cccs4)ccn3n2)cc1 [NCGC00456924-01] | 0.00989
COc1ccc(-c2cc3c(=O)n(CCNC(=O)c4cccc(N(C)C)c4)ccn3n2)cc1 [NCGC00456929-01] | 0.00351
CCOc1ccc(-c2cc3c(=O)n(CCNC(=O)c4cccc(C#N)c4)ccn3n2)cc1 [NCGC00456938-01] | 0.0007
CCOc1ccc(-c2cc3c(=O)n(CCNC(=O)c4cccc(N(C)C)c4)ccn3n2)cc1 [NCGC00456949-01] | 0.00394
CCOc1ccc(-c2cc3c(=O)n(CCNC(=O)c4ccncc4)ccn3n2)cc1 [NCGC00456950-01] | 0.00351
CCOc1ccc(-c2cc3c(=O)n(CCNC(=O)c4cccc5[nH]ccc45)ccn3n2)cc1 [NCGC00456956-01] | 0.00556
Cc1ccc(-c2cc3c(=O)n(CCNC(=O)C4CCCCC4)ccn3n2)c(C)c1 [NCGC00456958-01] | 0.00248
COc1cccc(CC(=O)NCCn2ccn3nc(-c4ccc(C)cc4C)cc3c2=O)c1 [NCGC00456960-01] | 0.00881
Cc1ccc(-c2cc3c(=O)n(CCNC(=O)c4cccnc4)ccn3n2)c(C)c1 [NCGC00456961-01] | 0.00989
CC(=O)Nc1cccc(C(=O)NCCn2ccn3nc(-c4ccc(C)cc4C)cc3c2=O)c1 [NCGC00456962-01] | 0.00989
COc1cccc(C(=O)NCCn2ccn3nc(-c4ccc(C)cc4C)cc3c2=O)c1OC [NCGC00456963-01] | 0.00989
Cc1ccc(-c2cc3c(=O)n(CCNC(=O)Cc4cccc(F)c4)ccn3n2)c(C)c1 [NCGC00456965-01] | 0.00556
Cc1ccc(-c2cc3c(=O)n(CCNC(=O)c4ccc(C)s4)ccn3n2)c(C)c1 [NCGC00456966-01] | 0.007
